Source: patent US11510983B2 (priority 2013, dated 2022)

Tests used:
[1] = tested on: A/California/7/2009 (H1N1); set-up: species or system BALB/c mice; conditions: mouse, in vivo
[2] = pig, in vivo
[3] = tested on: A/California/7/2009 (H1N1); set-up: species or system BALB/c mice; conditions: mouse, in vivo; remark: listed apart in the source
[4] = set-up: species or system mice; conditions: mouse, in vivo

Row | Compound | time after which HAI titer started to decline to levels of non-adjuvanted flu vaccine [1] [months] | skin response at the injection site [2] | elevation of IgG2a production [3] [fold] | type of immune response by IgG2a/IgG1 ratio [3] | raise of specific antibody titers in the presence vs. absence of laser pre-treatment [4] [folds]
1 | CC(C)Cn1cnc2c(N)nc3ccccc3c21 [IMIQ, 1-(2-Methylpropyl)-1H-imidazo[4,5-c]quinolin-4-amine] | > 3 | Diminished skin irritation | 5 | Th1-biased immune response | 
2 | OVA: protein model antigen ovalbumin |  |  |  |  | 6
